Reference: article PMC7181277, “Synthesis and Biological Evaluation of New Antitubulin Agents Containing 2-(3′,4′,5′-trimethoxyanilino)-3,6-disubstituted-4,5,6,7-tetrahydrothieno[2,3-c]pyridine Scaffold” (Molecules, 2020)
Like-named read-outs stand apart in the source and are kept apart here.

Legend:
[1] = test system: murine leukemia (L1210) cells; test: In vitro antiproliferative assay, L1210 cells; assay type: cell-based; conditions: Mus musculus; murine leukemia L1210, 72 h, cell count; mean ± SE
From the text: (§1) In Table 1 we report the in vitro antiproliferative activity of 2-(3′,4′,5′-trimethoxyanilino)-4,5,6,7-tetrahydrothieno[2,3-c]pyridine derivatives 3a–3j and the related 4,5,6,7-tetrahydrobenzo[b]thiophenes 3k–3p against a panel of three cell lines, which were derived from different cancer types, including murine leukemia (L1210), human T-lymphoblastoid leukemia (CEM), and human cervix carcinoma (HeLa) cells.
(§2) Murine leukemia L1210, human T-lymphocyte leukemia CEM, human cervix carcinoma (HeLa), and human chronic myelogenous leukemia K562 cells (3–5 × 10^4 cells) and a serial (5-fold) dilution of the test compounds were added to a 96-well microtiter plate. The cells were incubated for 72 h at 37 °C in a humidified 5% CO2 atmosphere. At the end of the incubation period, the cells were counted in a Coulter Counter (Coulter Electronics Ltd., Harpenden Herts, United Kingdom). The IC50 (50% inhibitory concentration) was defined as the concentration of compound that inhibited cell proliferation by 50%. The IC50 values represent the average (± standard deviation) of three independent experiments. Human peripheral blood mononuclear cells (PBMC) were obtained from healthy donors by centrifugation with Ficoll-Paque Plus (GE Healthcare Bio-Sciences AB, Uppsala).

[2] = test system: human T-lymphoblastoid leukemia (CEM) cells; test: In vitro antiproliferative assay, CEM cells; assay type: cell-based; conditions: CCRF-CEM; human T-lymphocyte CEM, 72 h, cell count; mean ± SE
Protocol: as §2, with “The IC50 (50% inhibitory concentration) was defined as the concentration of compound that inhibited cell proliferation by 50%.” left out

[3] = test system: human cervix carcinoma (HeLa) cells; test: In vitro antiproliferative assay, HeLa cells; assay type: cell-based; conditions: for fold more active than 2b against HeLa cells: relative to 2b (IC50: 41 μM); for IC50: human cervix carcinoma HeLa, 72 h, cell count, mean ± SE
Protocol: as §2, with “The IC50 (50% inhibitory concentration) was defined as the concentration of compound that inhibited cell proliferation by 50%.” left out

[4] = test system: human chronic myelogenous leukemia K562 cells; test: In vitro antiproliferative assay, K562 cells; assay type: cell-based; conditions: 72 h; for IC50: Homo sapiens
Protocol: These values are 1.5-fold lower than those obtained with the 6-methoxycarbonyl derivative 3a against L1210 and HeLa cells, while both compounds were equipotent against CEM cells.
as §2

[5] = test system: human peripheral blood mononuclear cells (PBMC); test: Antiproliferative activity in normal human cells (PBMC); assay type: cell-based; conditions: 72 h
Protocol: In order to investigate the selective antiproliferative activities of derivatives 3a and 3b in normal human cells, both these molecules were tested in vitro against human peripheral blood mononuclear cells (PBMC) isolated from healthy donors.
as §2

Bovine brain tubulin = test: Inhibition of tubulin polymerization (turbidimetric assembly); assay type: biochemical; conditions: tubulin at 10 μM, 20 min incubation; read-out: Tubulin assembly IC50 ± SD
Protocol: (§3) Bovine brain tubulin was purified as described previously. To evaluate the effect of the compounds on tubulin assembly in vitro [59], varying concentrations were preincubated with 10 μM tubulin in 0.8 M glutamate buffer at 30 °C and then cooled to 0 °C. After addition of GTP, the mixtures were transferred to 0 °C cuvettes in a recording spectrophotometer and warmed to 30 °C, and the assembly of tubulin was observed turbidimetrically. […] The ability of the test compounds to inhibit colchicine binding to tubulin was measured as described earlier, except that the reaction mixtures contained 1 μM tubulin, 5 μM of [^3H]colchicine, and test compounds 3a or 3b.

[6] = test system: tubulin (colchicine site); test: Inhibition of [3H]colchicine binding to tubulin; design: species or system Bovine; conditions: tubulin 1 μM, colchicine 5 μM, compound 5 μM
Protocol: as §3

K562 cells [7] = test: Cell cycle distribution by flow cytometry (Muse Cell Analyzer); assay type: cell-based, human; conditions: K562, 72 h, three experiments, average ± S.D.; for percentage of G2/M-phase cells at IC50: at IC50 (3a 0.75 μM, 3b 0.70 μM); for percentage of G2/M-phase cells at IC75: at IC75 (3a 1.0 μM, 3b 0.90 μM)
Protocol: The cells were cultured for 72 h in the presence of two different concentrations (IC50 and IC75) for each tested derivative and the obtained results were compared with non-treated K562 cells as control.
Human leukemia K562 cells were treated with compounds 3a or 3b, and analysis of the distribution of the cells through the cell cycle was performed with the Muse Cell Analyzer instrument (Millipore Corporation, Billerica, MA, USA). Assay and cell counting were performed according to the instructions supplied by the manufacturer. Samples were collected after the treatment and washed in PBS. For analysis, 5 × 10^5 cells were resuspended in 200 μL of Muse Cell Cycle Reagent, incubated for 30 min at room temperature, and the cell suspension was transferred to a 1.5 mL microcentrifuge tube prior to analysis. Cells were analyzed by fluorescence-activated cell sorting analysis using a Muse Cell Analyzer.

K562 cells [8] = test: Apoptosis assay (Muse Annexin V & Dead Cell Kit); assay type: cell-based, human; conditions: K562, 72 h, representative experiment; for cells undergoing apoptosis (total) at IC50: at IC50 (3a 0.75 μM, 3b 0.70 μM); for cells undergoing apoptosis (total) at IC75: at IC75 (3a 1.00 μM, 3b 0.90 μM)
From the text: This phospholipid flips from the inner to the outer leaflet of the plasma membrane during apoptosis. Positive staining with annexin-V correlates with the loss of plasma membrane polarity, but this staining precedes the complete loss of membrane integrity that accompanies the later stages of cell death, resulting from either apoptosis or necrosis. In contrast, PI can only enter cells after complete loss of membrane integrity. Thus, dual staining for annexin-V and with PI permits discrimination between unaffected cells (annexin-V^−/PI^−), early apoptotic cells (annexin-V^+/PI^−), late apoptotic cells (annexin-V^+/PI^+), and necrotic cells (annexin-V^−/PI^+).
Apoptosis assays on K562 cells were performed with the Muse Cell Analyzer instrument, and assays were performed according to the instructions supplied by the manufacturer. The Muse Annexin V & Dead Cell Kit employs annexin V to detect phosphatidyl serine (PS) on the external membrane of apoptotic cells. A fluorescent DNA intercalator (7-ADD: 7-aminoactinomycin D) is also used as an indicator of cell membrane integrity. From live, healthy cells, as well as early apoptotic cells, 7-ADD is excluded while it is able to bind DNA in cells in late apoptosis and in dead cells. Cells were washed with sterile PBS 1X, suspended, and diluted (1:2) with the Muse Annexin V & Dead Cell reagent. Samples were gently mixed and incubated at room temperature, protected from the light for 15 min. Samples were analyzed using a Muse Cell Analyzer, and data from prepared samples were acquired and recorded utilizing the Annexin V and Dead Cell Software Module (Millipore).

[9] = test system: L1210, CEM, and HeLa cells; test: Antiproliferative activity, panel of three cancer cell lines; assay type: cell-based; conditions: for IC50: span over L1210, CEM and HeLa, read-out: IC50 values against the panel of three cancer cell lines
From the text: as §1, §2

[10] = phytohemagglutin (PHA)-stimulated PBMC, read-out: IC50 PBMC, PHA-stimulated
[11] = resting PBMC from healthy donors, read-out: IC50 PBMC, resting

Compound | IC50 [1] [µM] | IC50 [2] [µM] | fold more active than 2b against HeLa cells [3] [fold] | IC50 [3] [µM] | IC75 K562 [4] [µM] | IC50 [4] [µM] | IC50 [5, 10] [µM] | IC50 [5, 11] [µM] | IC50 (Bovine brain tubulin) [µM] | Colchicine binding % ± SD (inhibition of [3H]colchicine binding) [6] [%] | percentage of G2/M-phase cells at IC50 (K562 cells [7]) | percentage of G2/M-phase cells at IC75 (K562 cells [7]) | cells undergoing apoptosis (total) at IC50 (K562 cells [8]) [%] | cells undergoing apoptosis (total) at IC75 (K562 cells [8]) [%] | IC50 [9] [µM] | fold lower IC50 than 3a ([9]; against L1210 and HeLa cells) [fold]
COC(=O)N1CCc2c(sc(Nc3cc(OC)c(OC)c(OC)c3)c2C#N)C1 [Compound 3a, Methyl 3-cyano-2-((3,4,5-trimethoxyphenyl)amino)-4,5-dihydrothieno[2,3-c]pyridine-6(7H)-carboxylate] | 4.7 ± 0.4 | 2.9 ± 2.1 | 40 | 1.9 ± 1.2 | 1.0 | 0.75 | > 20 | > 20 | 3.8 ± 0.05 | 29 ± 1 | 33.6% ± 1.1% | 34.9% ± 1.3% | 29.64 | 46.68 | 1.9 to 4.7 | –
CCOC(=O)N1CCc2c(sc(Nc3cc(OC)c(OC)c(OC)c3)c2C#N)C1 [Compound 3b, Ethyl 3-cyano-2-((3,4,5-trimethoxyphenyl)amino)-4,5-dihydrothieno[2,3-c]pyridine-6(7H)-carboxylate] | 2.8 ± 2.3 | 2.3 ± 1.7 | 20 | 1.1 | 0.90 | 0.7 | > 20 | > 20 | 3.4 ± 0.05 | 31 ± 1 | 30.3% ± 1.3% | 33.5% ± 0.6% | 32.87 | 56.01 | 1.1 to 2.8 | 1.5
